Laboratory results from patent US5430062A, “Stilbene derivatives as anticancer agents” (priority 1993, dated 1995).
Where “and” joins values, the source holds several entries; their conditions need not be identical. Equal values may be shown once. Read-outs that look alike come from different tables or passages of the source.

What was measured:
tubulin = assay: Inhibition of tubulin polymerization (turbidimetry); assay type: biochemical, bovine; conditions: Hydrochloride
CCRF-CBM leukemia = assay: Cytotoxicity, CCRF-CBM; assay type: cell-based; conditions: read-out: Log10 GI50, CCRF-CBM (converted)
Text: (§1) A total of 55 cell lines from the leukemia, non-small cell lung cancer, small cell lung cancer, colon cancer, CNS cancer, melanoma, ovarian cancer, and renal cancer panels were examined.

K-562 leukemia = assay: Cytotoxicity, K-562; assay type: cell-based
Text: as §1

[1] = system: HOP-18 non-small cell lung cancer; assay: Cytotoxicity, HOP-18; assay type: cell-based; conditions: Homo sapiens, read-out: Log10 GI50, HOP-18 (converted)
Text: as §1

[2] = system: HOP-62 non-small cell lung cancer; assay: Cytotoxicity, HOP-62; assay type: cell-based; conditions: Homo sapiens, read-out: Log10 GI50, HOP-62 (converted)
Text: as §1

[3] = system: HOP-92 non-small cell lung cancer; assay: Cytotoxicity, HOP-92; assay type: cell-based; conditions: Homo sapiens, read-out: Log10 GI50, HOP-92 (converted)
Text: as §1

[4] = system: NCI-H23 non-small cell lung cancer; assay: Cytotoxicity, NCI-H23; assay type: cell-based; conditions: Homo sapiens, read-out: Log10 GI50, NCI-H23 (converted)
Text: as §1

HT29 colon cancer = assay: Cytotoxicity, HT29 (Table XI panel); assay type: cell-based; conditions: Homo sapiens, HT-29; read-out: Log10 GI50, HT29 (converted)
Text: as §1

KM12 colon cancer = assay: Cytotoxicity, KM12; assay type: cell-based; conditions: Homo sapiens, read-out: Log10 GI50, KM12 (converted)
Text: as §1

KM20L2 colon cancer = assay: Cytotoxicity, KM20L2; assay type: cell-based; conditions: Homo sapiens, KM-20L2; read-out: Log10 GI50, KM20L2 (converted)
Text: as §1

SW-620 colon cancer = assay: Cytotoxicity, SW-620; assay type: cell-based; conditions: Homo sapiens, read-out: Log10 GI50, SW-620 (converted)
Text: as §1

SF-268 CNS cancer = assay: Cytotoxicity, SF-268; assay type: cell-based; conditions: Homo sapiens, SF-268, read-out: Log10 GI50, SF-268 (converted)
Text: as §1

SNB-19 CNS cancer = assay: Cytotoxicity, SNB-19; assay type: cell-based; conditions: Homo sapiens, read-out: Log10 GI50, SNB-19 (converted)
Text: as §1

SNB-75 CNS cancer = assay: Cytotoxicity, SNB-75; assay type: cell-based; conditions: Homo sapiens, read-out: Log10 GI50, SNB-75 (converted)
Text: as §1

SNB-78 CNS cancer = assay: Cytotoxicity, SNB-78; assay type: cell-based; conditions: Homo sapiens, read-out: Log10 GI50, SNB-78 (converted)
Text: as §1

XF498 CNS cancer = assay: Cytotoxicity, XF498; assay type: cell-based; conditions: Homo sapiens, read-out: Log10 GI50, XF498 (converted)
Text: as §1

SK-MEL-2 melanoma = assay: Cytotoxicity, SK-MEL-2; assay type: cell-based; conditions: Homo sapiens, read-out: Log10 GI50, SK-MEL-2 (converted)
Text: as §1

UACC-257 melanoma = assay: Cytotoxicity, UACC-257; assay type: cell-based; conditions: Homo sapiens, read-out: Log10 GI50, UACC-257 (converted)
Text: as §1

OVCAR-4 ovarian cancer = assay: Cytotoxicity, OVCAR-4; assay type: cell-based; conditions: Homo sapiens, read-out: Log10 GI50, OVCAR-4 (converted)
Text: as §1

OVCAR-5 ovarian cancer = assay: Cytotoxicity, OVCAR-5; assay type: cell-based; conditions: Homo sapiens, read-out: Log10 GI50, OVCAR-5 (converted)
Text: as §1

OVCAR-8 ovarian cancer = assay: Cytotoxicity, OVCAR-8; assay type: cell-based; conditions: Homo sapiens, read-out: Log10 GI50, OVCAR-8 (converted)
Text: as §1

A498 renal cancer = assay: Cytotoxicity, A498; assay type: cell-based; conditions: Homo sapiens, read-out: Log10 GI50, A498 (converted)
Text: as §1

ACHN renal cancer = assay: Cytotoxicity, ACHN; assay type: cell-based
Text: as §1

SN12C renal cancer = assay: Cytotoxicity, SN12C; assay type: cell-based; conditions: Homo sapiens, read-out: Log10 GI50, SN12C (converted)
Text: as §1

TK-10 renal cancer = assay: Cytotoxicity, TK-10; assay type: cell-based; conditions: Homo sapiens, read-out: Log10 GI50, TK-10 (converted)
Text: as §1

UO-31 renal cancer = assay: Cytotoxicity, UO-31; assay type: cell-based; conditions: Homo sapiens, read-out: Log10 GI50, UO-31 (converted)
Text: as §1

Water solubility = assay type: physicochemical
SF-295 CNS cancer = assay: Cytotoxicity, SF-295
CAKI-1 renal cancer = assay: Cytotoxicity, CAKI-1; conditions: read-out: cytotoxicity GI50, CAKI-1, 50% growth inhibition, average of two determinations, 8640 min, Hydrochloride
[5] = system: DMS 273 small cell lung cancer; assay: Cytotoxicity, DMS 273; conditions: Hydrochloride
OVCAR-3 ovarian cancer = assay: Cytotoxicity, OVCAR-3; conditions: read-out: cytotoxicity GI50, OVCAR-3, 50% growth inhibition, average of two determinations, 8640 min, Hydrochloride
COLO 205 colon cancer = assay: Cytotoxicity, COLO 205
HL-60 (TB) leukemia = assay: Cytotoxicity, HL-60(TB) leukemia; conditions: read-out: cytotoxicity GI50, HL-60(TB); 50% growth inhibition; average of two determinations; 8640 min; Hydrochloride, 8640 min

`COc1cc(CNc2ccc(C)cc2)cc(OC)c1OC.Cl` [110a, 4-Methyl-N-(3,4,5-trimethoxybenzyl)aniline Hydrochloride] showed an IC50 (tubulin; Table X, different glutamate preparation (1M monosodium glutamate and GTP), read-out: inhibn of tubulin polymn IC50 (±SD)) of 3.5 µM, an IC50 (tubulin; benzylanilines, Table X series, read-out: tubulin polymerization IC50) of 3.5 µM and a GI50 (CCRF-CBM leukemia) of 0.282 µM. For the same compound, the GI50 (K-562 leukemia; Homo sapiens, K562, read-out: Log10 GI50, K-562 (converted)) was under 0.1 µM, the “Log10 GI50, K-562” value (K-562 leukemia; Hydrochloride) was -7.00 and the GI50 [1] was 37.2 µM. The GI50 [2] was 0.282 µM, the GI50 [3] was 18.6 µM and the GI50 [4] was 0.407 µM. The GI50 (HT29 colon cancer) was 0.347 µM, the GI50 (KM12 colon cancer) was 0.759 µM and the GI50 (KM20L2 colon cancer) was 0.251 µM. It also gave a GI50 (SW-620 colon cancer) of 0.11 µM, a GI50 (SF-268 CNS cancer) of 0.912 µM and a GI50 (SNB-19 CNS cancer) of 0.295 µM. For the same compound, the GI50 (SNB-75 CNS cancer) was 0.389 µM, the GI50 (SNB-78 CNS cancer) was 1.1 µM and the GI50 (XF498 CNS cancer) was 0.468 µM. It also gave a GI50 (SK-MEL-2 melanoma) of 0.132 µM, a GI50 (UACC-257 melanoma) of over 100 µM and a GI50 (OVCAR-4 ovarian cancer) of 21.4 µM. For the same compound, the GI50 (OVCAR-5 ovarian cancer) was 1.35 µM, the GI50 (OVCAR-8 ovarian cancer) was 0.759 µM and the GI50 (A498 renal cancer) was over 100 µM. The GI50 (ACHN renal cancer; Homo sapiens, ACHN, read-out: Log10 GI50, ACHN (converted)) was under 0.1 µM, the “Log10 GI50, ACHN” value (ACHN renal cancer; Hydrochloride) was -7.01 and the GI50 (SN12C renal cancer) was 0.851 µM. For the same compound, the GI50 (TK-10 renal cancer) was over 100 µM, the GI50 (UO-31 renal cancer) was 0.832 µM and the “water solubility (in words)” value (Water solubility) was “water soluble”. For the same compound, the “Log10 GI50, SF-295” value (SF-295 CNS cancer) was -6.49, the GI50 (SF-295 CNS cancer; read-out: cytotoxicity GI50, SF-295, 50% growth inhibition, average of two determinations, 8640 min, Hydrochloride, 8640 min) was 0.233 µM and the GI50 (CAKI-1 renal cancer) was 0.162 µM. For the same compound, the “Log10 GI50, DMS 273” value [5] was < -7.00 and -7.03, the GI50 ([5]; read-out: cytotoxicity GI50, DMS 273, 50% growth inhibition, average of two determinations, 8640 min, 8640 min) was 0.104 µM and the GI50 (OVCAR-3 ovarian cancer) was 0.214 µM. The “Log10 GI50, COLO 205” value (COLO 205 colon cancer) was -6.67, the GI50 (COLO 205 colon cancer; read-out: cytotoxicity GI50, COLO 205, 50% growth inhibition, average of two determinations, 8640 min, Hydrochloride, 8640 min) was 0.219 µM and the GI50 (HL-60 (TB) leukemia) was 0.0722 µM.
